{"source": "paper PMC10687080", "about": "“Resurrecting ancestral antibiotics: unveiling the origins of modern lipid II targeting glycopeptides” (Nature Communications, 2023)", "key": {"ANC1": {"molecular_target": "T1, ANC1 (synthetic construct, UniProt Z9HSK4K2R8)", "T1 construct": "resurrected ancestral A-domain, N-terminal His6-SUMO, C-terminal STREP tag, co-expressed with Tcp13 in E. coli BL21(DE3); with MbtH-like protein Tcp13 (Actinoplanes teichomyceticus)", "assay": "NADH coupled pyrophosphate release assay", "format": "biochemical", "settings": "1 mM substrate, 0.5 mM ATP, 10 mM MgCl2, pH 7.4, 30 °C"}, "ANC2 (ANC2int)": {"molecular_target": "T2, ANC2 (ANC2int) (synthetic construct, UniProt Z9RCC4OUL6)", "T2 construct": "resurrected ancestral A-domain, N-terminal His6-SUMO, C-terminal STREP tag, co-expressed with Tcp13 in E. coli BL21(DE3); with MbtH-like protein Tcp13 (Actinoplanes teichomyceticus)", "assay": "NADH coupled pyrophosphate release assay", "format": "biochemical", "settings": "1 mM substrate, 0.5 mM ATP, 10 mM MgCl2, pH 7.4, 30 °C"}}, "data": [{"smiles": "N[C@@H](C(=O)O)c1ccc(O)cc1", "note": "[D-Hpg]", "values": [{"measurement": "NADH coupled pyrophosphate release assay", "setting": "ANC1", "result": "with a fourfold preference for the L-form"}]}, {"smiles": "CC(C)C[C@@H](N)C(=O)O", "note": "[D-Leu]", "values": [{"measurement": "NADH coupled pyrophosphate release assay", "setting": "ANC2 (ANC2int)", "result": "ANC2 and ANC3 were both selective for Leu"}]}, {"smiles": "CC(C)C[C@H](N)C(=O)O", "note": "[L-Leu]", "values": [{"measurement": "NADH coupled pyrophosphate release assay", "setting": "ANC2 (ANC2int)", "result": "ANC2 and ANC3 were both selective for Leu"}]}]}
